SMILES strings stand for the structures.

For orientation: melting point means the temperature, or range, at which the solid turns liquid.

For the molecule `C[C@@H]1CCCN1CCc1nc2cc(-c3ccc(C#N)cc3)ccc2o1` [Example 24E, 4-{2-[2-(2-(R)-methyl-pyrrolidin-1-yl)-ethyl]-benzooxazol-5-yl}-benzonitrile], the melting point was in the range of 70 to 72 °C.

The values above are taken from patent US7358263B2, “Fused bicyclic-substituted amines as histamine-3 receptor ligands” (Abbott Laboratories, priority 2006, dated 2008).
